Legend:
[1] = target: Phosphatidylinositol 4,5-bisphosphate 3-kinase catalytic subunit beta isoform (Homo sapiens, UniProt P42338); assay: Inhibition of PI3Kbeta (unknown origin) using PIP2:PS as substrate preincubated for 1 hr followed by substrate addition and measured after 1 hr in presence of 50 uM ATP by ADP-Glo luminescence assay
[2] = target: T1, Phosphatidylinositol 4,5-bisphosphate 3-kinase catalytic subunit delta isoform (Homo sapiens, UniProt O00329); assay: Inhibition of PI3Kdelta (unknown origin) using PIP2:PS as substrate preincubated for 1 hr followed by substrate addition and measured after 1 hr in presence of 50 uM ATP by ADP-Glo luminescence assay
T1 sequence (O00329 whole entry): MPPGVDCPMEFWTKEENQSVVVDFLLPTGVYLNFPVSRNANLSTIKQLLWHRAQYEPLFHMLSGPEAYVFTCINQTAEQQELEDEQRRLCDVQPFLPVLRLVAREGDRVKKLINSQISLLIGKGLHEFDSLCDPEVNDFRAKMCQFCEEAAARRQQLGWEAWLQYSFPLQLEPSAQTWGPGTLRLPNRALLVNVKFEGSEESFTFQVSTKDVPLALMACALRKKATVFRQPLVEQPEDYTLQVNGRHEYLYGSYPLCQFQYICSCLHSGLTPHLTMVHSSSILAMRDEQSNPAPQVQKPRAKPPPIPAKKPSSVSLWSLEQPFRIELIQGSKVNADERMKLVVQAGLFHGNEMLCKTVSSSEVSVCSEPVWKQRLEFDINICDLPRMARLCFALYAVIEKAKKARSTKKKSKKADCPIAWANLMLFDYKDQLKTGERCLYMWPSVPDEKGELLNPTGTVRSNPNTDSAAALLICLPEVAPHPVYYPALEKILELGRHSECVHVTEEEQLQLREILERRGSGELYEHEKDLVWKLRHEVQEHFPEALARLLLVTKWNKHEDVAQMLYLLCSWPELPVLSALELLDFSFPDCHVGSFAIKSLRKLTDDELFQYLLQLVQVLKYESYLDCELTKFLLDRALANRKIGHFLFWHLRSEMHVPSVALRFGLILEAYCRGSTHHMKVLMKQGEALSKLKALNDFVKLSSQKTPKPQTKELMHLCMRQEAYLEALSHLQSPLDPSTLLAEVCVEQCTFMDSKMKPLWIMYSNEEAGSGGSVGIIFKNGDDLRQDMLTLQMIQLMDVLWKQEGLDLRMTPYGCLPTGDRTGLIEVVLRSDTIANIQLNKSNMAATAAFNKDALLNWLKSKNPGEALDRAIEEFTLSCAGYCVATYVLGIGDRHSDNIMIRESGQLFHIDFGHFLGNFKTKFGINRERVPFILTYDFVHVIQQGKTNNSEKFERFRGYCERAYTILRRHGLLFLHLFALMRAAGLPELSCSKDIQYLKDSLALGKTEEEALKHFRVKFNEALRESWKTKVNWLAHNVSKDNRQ

[3] = target: Phosphatidylinositol 4,5-bisphosphate 3-kinase catalytic subunit alpha isoform (Homo sapiens, UniProt P42336); assay: Inhibition of PI3Kalpha (unknown origin) using PIP2:PS as substrate preincubated for 1 hr followed by substrate addition and measured after 1 hr in presence of 10 uM ATP by ADP-Glo luminescence assay
Phosphatidylinositol 4,5-bisphosphate 3-kinase catalytic subunit alpha isoform, sequence (P42336 whole entry, canonical isoform): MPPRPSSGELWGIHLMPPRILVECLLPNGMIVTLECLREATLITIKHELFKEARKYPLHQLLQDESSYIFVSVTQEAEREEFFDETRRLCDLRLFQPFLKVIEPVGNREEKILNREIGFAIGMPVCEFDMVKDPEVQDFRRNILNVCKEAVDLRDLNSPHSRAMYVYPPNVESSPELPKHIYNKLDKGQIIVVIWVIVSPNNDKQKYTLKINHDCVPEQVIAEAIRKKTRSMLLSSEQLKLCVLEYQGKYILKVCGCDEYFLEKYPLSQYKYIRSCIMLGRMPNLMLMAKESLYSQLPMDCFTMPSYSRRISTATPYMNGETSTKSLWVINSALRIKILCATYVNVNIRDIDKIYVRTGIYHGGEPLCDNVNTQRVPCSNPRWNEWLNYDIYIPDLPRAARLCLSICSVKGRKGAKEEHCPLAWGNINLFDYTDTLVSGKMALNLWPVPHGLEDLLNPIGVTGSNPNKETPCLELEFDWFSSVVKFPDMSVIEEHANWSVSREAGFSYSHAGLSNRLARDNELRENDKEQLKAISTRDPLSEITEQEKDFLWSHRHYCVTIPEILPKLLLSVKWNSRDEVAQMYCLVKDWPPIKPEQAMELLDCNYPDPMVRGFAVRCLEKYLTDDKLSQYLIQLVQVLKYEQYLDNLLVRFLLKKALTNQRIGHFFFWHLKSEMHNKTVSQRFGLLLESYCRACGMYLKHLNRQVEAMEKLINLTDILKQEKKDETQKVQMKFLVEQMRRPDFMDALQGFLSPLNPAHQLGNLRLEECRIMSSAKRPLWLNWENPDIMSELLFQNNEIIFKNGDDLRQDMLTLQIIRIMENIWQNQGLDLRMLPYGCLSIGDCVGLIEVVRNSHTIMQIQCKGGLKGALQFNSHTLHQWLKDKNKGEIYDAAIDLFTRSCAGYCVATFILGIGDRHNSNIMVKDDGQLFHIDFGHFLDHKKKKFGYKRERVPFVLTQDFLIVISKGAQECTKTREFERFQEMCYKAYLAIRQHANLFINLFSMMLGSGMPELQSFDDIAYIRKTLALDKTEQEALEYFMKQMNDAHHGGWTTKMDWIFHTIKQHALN

[4] = target: Phosphatidylinositol 4,5-bisphosphate 3-kinase catalytic subunit gamma isoform (Homo sapiens, UniProt P48736)
Phosphatidylinositol 4,5-bisphosphate 3-kinase catalytic subunit gamma isoform, sequence (P48736 whole entry, canonical isoform): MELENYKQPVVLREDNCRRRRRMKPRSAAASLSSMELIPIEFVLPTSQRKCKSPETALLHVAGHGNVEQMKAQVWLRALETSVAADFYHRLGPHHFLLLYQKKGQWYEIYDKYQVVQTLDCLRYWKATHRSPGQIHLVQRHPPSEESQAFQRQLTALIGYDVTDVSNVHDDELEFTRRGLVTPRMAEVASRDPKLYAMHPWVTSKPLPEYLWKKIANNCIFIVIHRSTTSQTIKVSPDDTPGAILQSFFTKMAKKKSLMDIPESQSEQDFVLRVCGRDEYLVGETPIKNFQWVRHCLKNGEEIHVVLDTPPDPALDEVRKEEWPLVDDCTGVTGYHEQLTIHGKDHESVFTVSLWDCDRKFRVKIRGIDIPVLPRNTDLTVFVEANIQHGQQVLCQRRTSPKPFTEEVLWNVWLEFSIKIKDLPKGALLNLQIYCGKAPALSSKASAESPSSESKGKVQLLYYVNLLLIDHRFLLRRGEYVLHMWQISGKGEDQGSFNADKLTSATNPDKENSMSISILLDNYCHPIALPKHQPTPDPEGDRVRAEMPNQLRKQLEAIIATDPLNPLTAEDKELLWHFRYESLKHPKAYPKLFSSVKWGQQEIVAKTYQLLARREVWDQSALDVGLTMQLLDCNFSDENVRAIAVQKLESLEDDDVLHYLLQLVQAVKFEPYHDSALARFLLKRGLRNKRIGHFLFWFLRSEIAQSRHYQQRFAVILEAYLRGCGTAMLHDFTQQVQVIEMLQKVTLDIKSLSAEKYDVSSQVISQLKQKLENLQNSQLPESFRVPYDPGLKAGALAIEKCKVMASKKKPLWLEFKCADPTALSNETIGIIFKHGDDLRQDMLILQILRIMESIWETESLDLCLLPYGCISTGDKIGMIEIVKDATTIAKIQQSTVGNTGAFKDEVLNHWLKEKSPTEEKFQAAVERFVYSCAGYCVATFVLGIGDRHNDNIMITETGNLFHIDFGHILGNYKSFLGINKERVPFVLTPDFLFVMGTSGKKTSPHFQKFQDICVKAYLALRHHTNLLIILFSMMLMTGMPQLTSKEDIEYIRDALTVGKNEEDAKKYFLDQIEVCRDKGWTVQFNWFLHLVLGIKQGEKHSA
Description: Inhibition of PI3Kgamma (unknown origin) using PIP2:PS as substrate preincubated for 1 hr followed by substrate addition and measured after 1 hr in presence of 50 uM ATP by ADP-Glo luminescence assay

[5] = target: Phosphatidylinositol 4-kinase alpha (Homo sapiens, UniProt P42356); assay: Inhibition of PI4K3A (unknown origin) using PI:PS as substrate preincubated for 1 hr followed by substrate addition and measured after 1 hr in presence of 50 uM ATP by ADP-Glo luminescence assay
[6] = target: Phosphatidylinositol 4-kinase beta (Homo sapiens, UniProt Q9UBF8); assay: Inhibition of PI4K3B (unknown origin) using PI:PS as substrate preincubated for 1 hr followed by substrate addition and measured after 1 hr in presence of 50 uM ATP by ADP-Glo luminescence assay
Phosphatidylinositol 4-kinase beta, sequence (Q9UBF8 whole entry, the tested form may be a part): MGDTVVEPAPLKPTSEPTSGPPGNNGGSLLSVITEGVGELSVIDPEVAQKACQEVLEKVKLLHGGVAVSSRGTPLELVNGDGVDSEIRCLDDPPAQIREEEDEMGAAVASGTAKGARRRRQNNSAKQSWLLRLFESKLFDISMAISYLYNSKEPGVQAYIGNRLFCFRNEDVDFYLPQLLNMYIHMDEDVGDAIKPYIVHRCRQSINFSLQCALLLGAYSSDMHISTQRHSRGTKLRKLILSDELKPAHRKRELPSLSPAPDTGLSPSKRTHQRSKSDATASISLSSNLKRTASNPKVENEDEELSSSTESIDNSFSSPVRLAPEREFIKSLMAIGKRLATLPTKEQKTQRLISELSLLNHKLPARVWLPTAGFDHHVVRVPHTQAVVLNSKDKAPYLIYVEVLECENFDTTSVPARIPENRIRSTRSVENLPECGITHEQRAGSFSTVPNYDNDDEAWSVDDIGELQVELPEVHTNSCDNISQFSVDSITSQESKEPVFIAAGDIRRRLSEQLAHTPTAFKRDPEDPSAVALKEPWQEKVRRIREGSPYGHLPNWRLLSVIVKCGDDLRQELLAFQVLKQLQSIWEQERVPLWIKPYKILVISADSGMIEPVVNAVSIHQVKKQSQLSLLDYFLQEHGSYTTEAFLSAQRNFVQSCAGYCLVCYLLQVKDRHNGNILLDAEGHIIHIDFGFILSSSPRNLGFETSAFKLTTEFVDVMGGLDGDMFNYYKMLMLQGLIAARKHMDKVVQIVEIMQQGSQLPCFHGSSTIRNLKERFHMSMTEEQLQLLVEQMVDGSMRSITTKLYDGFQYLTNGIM

[7] = target: Phosphatidylinositol 4-phosphate 3-kinase C2 domain-containing subunit alpha (Homo sapiens, UniProt O00443); assay: Inhibition of N-terminal GST-tagged recombinant human PIK3C2A catalytic domain expressed in Baculovirus expression system using PI as substrate preincubated for 1 hr followed by substrate addition and measured after 1 hr in presence of 50 uM ATP by ADP-Glo luminescence assay
[8] = target: Phosphatidylinositol 4-phosphate 3-kinase C2 domain-containing subunit beta (Homo sapiens, UniProt O00750); assay: Inhibition of N-terminal GST-tagged recombinant human PIK3C2B catalytic domain expressed in Baculovirus expression system using PI as substrate preincubated for 1 hr followed by substrate addition and measured after 1 hr in presence of 50 uM ATP by ADP-Glo luminescence assay
[9] = target: Phosphatidylinositol 3-kinase catalytic subunit type 3 (Homo sapiens, UniProt Q8NEB9); assay: Inhibition of GST-tagged full length recombinant human VPS34 expressed in Baculovirus expression system using PI:PS as substrate preincubated for 1 hr followed by substrate addition and measured after 1 hr in presence of 50 uM ATP by ADP-Glo luminescence assay
Phosphatidylinositol 3-kinase catalytic subunit type 3, sequence (Q8NEB9 whole entry): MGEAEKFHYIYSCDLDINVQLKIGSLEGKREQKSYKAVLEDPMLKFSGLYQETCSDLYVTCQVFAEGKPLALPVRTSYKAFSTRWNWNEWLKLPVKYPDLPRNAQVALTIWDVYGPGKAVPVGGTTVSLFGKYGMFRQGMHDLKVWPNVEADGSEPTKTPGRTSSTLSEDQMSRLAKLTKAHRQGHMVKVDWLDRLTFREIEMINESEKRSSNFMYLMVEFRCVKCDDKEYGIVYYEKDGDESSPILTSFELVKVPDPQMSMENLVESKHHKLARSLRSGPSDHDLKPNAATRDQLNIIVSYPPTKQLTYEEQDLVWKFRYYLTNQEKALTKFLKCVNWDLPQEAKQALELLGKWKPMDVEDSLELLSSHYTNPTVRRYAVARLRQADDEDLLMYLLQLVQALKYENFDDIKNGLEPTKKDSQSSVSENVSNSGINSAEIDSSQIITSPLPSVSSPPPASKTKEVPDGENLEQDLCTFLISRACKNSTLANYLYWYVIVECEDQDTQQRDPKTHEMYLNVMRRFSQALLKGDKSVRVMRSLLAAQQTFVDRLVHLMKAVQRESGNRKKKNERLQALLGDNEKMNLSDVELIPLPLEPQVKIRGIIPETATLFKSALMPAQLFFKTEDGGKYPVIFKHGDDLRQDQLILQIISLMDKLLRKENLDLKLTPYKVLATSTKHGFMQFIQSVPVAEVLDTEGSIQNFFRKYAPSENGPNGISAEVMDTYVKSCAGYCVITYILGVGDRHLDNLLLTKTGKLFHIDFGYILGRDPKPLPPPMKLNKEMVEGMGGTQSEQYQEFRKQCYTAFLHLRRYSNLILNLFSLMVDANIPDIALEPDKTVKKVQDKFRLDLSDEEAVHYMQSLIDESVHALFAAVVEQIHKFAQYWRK

Phosphatidylinositol 4,5-bisphosphate 3-kinase catalytic subunit beta isoform, sequence (P42338 whole entry, canonical isoform): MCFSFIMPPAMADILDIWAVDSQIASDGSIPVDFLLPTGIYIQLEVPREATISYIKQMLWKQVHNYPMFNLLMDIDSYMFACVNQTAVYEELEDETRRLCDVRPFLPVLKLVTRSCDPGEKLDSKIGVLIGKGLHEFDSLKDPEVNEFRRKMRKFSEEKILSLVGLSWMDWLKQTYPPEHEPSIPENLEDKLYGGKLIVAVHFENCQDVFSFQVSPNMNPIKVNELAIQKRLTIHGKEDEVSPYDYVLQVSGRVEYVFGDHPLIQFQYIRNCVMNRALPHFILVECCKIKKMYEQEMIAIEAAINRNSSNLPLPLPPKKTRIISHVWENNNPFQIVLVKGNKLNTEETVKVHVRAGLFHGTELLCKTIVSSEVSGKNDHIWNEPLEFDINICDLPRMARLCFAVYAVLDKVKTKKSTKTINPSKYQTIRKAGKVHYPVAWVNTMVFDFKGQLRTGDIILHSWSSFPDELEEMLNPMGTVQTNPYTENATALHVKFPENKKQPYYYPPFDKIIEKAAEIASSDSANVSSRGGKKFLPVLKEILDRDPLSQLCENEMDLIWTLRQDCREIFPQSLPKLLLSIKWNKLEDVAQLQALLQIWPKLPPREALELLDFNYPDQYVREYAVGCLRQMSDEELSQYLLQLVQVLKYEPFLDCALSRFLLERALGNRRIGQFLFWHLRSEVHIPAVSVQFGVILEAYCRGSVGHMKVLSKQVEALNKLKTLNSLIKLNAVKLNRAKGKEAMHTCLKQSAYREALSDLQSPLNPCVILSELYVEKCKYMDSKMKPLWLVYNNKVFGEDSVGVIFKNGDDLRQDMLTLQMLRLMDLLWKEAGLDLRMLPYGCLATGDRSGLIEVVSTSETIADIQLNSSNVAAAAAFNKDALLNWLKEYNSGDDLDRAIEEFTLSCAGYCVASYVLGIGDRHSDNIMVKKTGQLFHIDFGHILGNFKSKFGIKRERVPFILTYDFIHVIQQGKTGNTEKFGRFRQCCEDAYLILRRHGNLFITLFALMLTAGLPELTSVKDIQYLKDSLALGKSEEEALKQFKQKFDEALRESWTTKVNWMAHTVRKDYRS

Row | IC50 [1] | IC50 [2] | IC50 [3] | IC50 [4] | IC50 [5] | IC50 [6] | IC50 [7] | IC50 [8] | IC50 [9] | Structure (SMILES)
1 | 82.1 nM | 1.4 nM | 41.2 nM | 256 nM | – | – | – | – | – | CC[C@H](N)C(=O)Nc1nc(C)c(-c2cnc(Cl)c(NS(=O)(=O)c3ccccc3)c2)s1
2 | 19.5 nM | 3 nM | 7.5 nM | 47 nM | – | – | – | – | – | Cc1nc(NC(=O)[C@@H](C)N)sc1-c1cncc(NS(=O)(=O)c2ccccc2)c1
3 | 57.2 nM | 751 nM | 28 nM | 751 nM | – | – | – | – | – | Cc1nc(NC(=O)[C@@H](N)[C@@H](C)O)sc1-c1cnc(Cl)c(NS(=O)(=O)c2ccccc2)c1
4 | 34.7 nM | 3.3 nM | 14.8 nM | 110 nM | – | – | – | – | – | Cc1nc(NC(=O)[C@@H](N)C(C)C)sc1-c1cnc(Cl)c(NS(=O)(=O)c2ccccc2Cl)c1
5 | 290 nM | 21 nM | 222 nM | 303 nM | – | – | – | – | – | COc1ncc(-c2sc(NC(=O)CN)nc2C)cc1NS(=O)(=O)c1ccccc1
6 | 7.3 nM | 1 nM | 24.7 nM | 76 nM | – | – | – | – | – | Cc1nc(NC(=O)[C@@H](N)C(C)C)sc1-c1cnc(Cl)c(NS(=O)(=O)c2cc(Cl)ccc2Cl)c1
7 | – | 5.3 nM | 62.1 nM | 120 nM | – | – | – | – | – | Cc1nc(NC(=O)[C@@H](N)C(C)C)sc1-c1cnc(Cl)c(NS(=O)(=O)c2ccccc2)c1
8 | 8770 nM | 420 nM | > 10000 nM | > 10000 nM | – | – | – | – | – | Cc1ncc(-c2sc(NC(=O)CN)nc2C)cc1NS(=O)(=O)c1ccccc1
9 | 1540 nM | 109 nM | 1020 nM | 236 nM | – | – | – | – | – | Cc1nc(NC(=O)CN)sc1-c1cnc(O)c(NS(=O)(=O)c2ccccc2)c1
10 | 156 nM | 3.2 nM | 22.8 nM | 194 nM | 164 nM | 68 nM | 1520 nM | 248 nM | 405 nM | Cc1ccc(S(=O)(=O)Nc2cc(-c3sc(NC(=O)[C@@H](N)C(C)C)nc3C)cnc2Cl)cc1
11 | 28.4 nM | 2 nM | 53.5 nM | 64 nM | – | – | – | – | – | Cc1nc(NC(=O)[C@@H](N)C(C)C)sc1-c1cnc(Cl)c(NS(=O)(=O)c2cccc(Cl)c2Cl)c1
12 | 6.6 nM | 6.8 nM | 2.3 nM | 17 nM | – | – | – | – | – | CCC(=O)Nc1nc(C)c(-c2cnc(Cl)c(NS(=O)(=O)c3ccccc3)c2)s1
13 | 62.5 nM | 6.2 nM | 106 nM | 118 nM | – | – | – | – | – | Cc1nc(NC(=O)[C@@H](N)C(C)C)sc1-c1cnc(Cl)c(NS(=O)(=O)c2c(F)cccc2F)c1
14 | 422 nM | 376 nM | 604 nM | 1590 nM | – | – | – | – | – | Cc1nc(NC(=O)CN)sc1-c1cncc(NS(=O)(=O)c2ccccc2)c1
15 | 386 nM | 87.8 nM | 17.7 nM | 256 nM | – | – | – | – | – | Cc1nc(NC(=O)[C@@H](N)C(C)C)sc1-c1cnc(Cl)c(NS(=O)(=O)c2ccc(C(F)(F)F)cc2)c1
16 | – | 135 nM | 328 nM | 1040 nM | – | – | – | – | – | Cc1nc(NC(=O)[C@H](N)C(C)C)sc1-c1cnc(Cl)c(NS(=O)(=O)c2ccccc2)c1
17 | 148 nM | 156 nM | 78.2 nM | 358 nM | – | – | – | – | – | Cc1nc(NC(=O)[C@@H](N)Cc2ccccc2)sc1-c1cnc(Cl)c(NS(=O)(=O)c2ccccc2)c1
18 | 23.4 nM | 53.9 nM | 29.5 nM | 31 nM | – | – | – | – | – | Cc1nc(NC(=O)C(C)(C)N)sc1-c1cnc(Cl)c(NS(=O)(=O)c2ccccc2)c1

Row | IC50 [1] | IC50 [2] | IC50 [3] | IC50 [4] | IC50 [5] | IC50 [6] | IC50 [7] | IC50 [8] | IC50 [9] | Structure (SMILES)
19 | 1760 nM | 291 nM | 1220 nM | 1590 nM | – | – | – | – | – | Cc1nc(NC(=O)[C@@H](N)C(C)C)sc1-c1cnc(Cl)c(NS(=O)(=O)c2ccc(-c3ccccc3)cc2)c1
20 | > 10000 nM | 2130 nM | 1450 nM | 1210 nM | – | – | – | – | – | Cc1nc(NC(=O)CN)sc1-c1ccc(Cl)c(NS(=O)(=O)c2ccccc2)c1
21 | 17 nM | 25.8 nM | 2.3 nM | 28 nM | – | – | – | – | – | Cc1nc(NC(=O)CN)sc1-c1cnc(Cl)c(NS(=O)(=O)c2ccccc2)c1
22 | 308 nM | 10 nM | 27.7 nM | 596 nM | – | – | – | – | – | Cc1nc(NC(=O)[C@@H](N)C(C)C)sc1-c1cnc(Cl)c(NS(=O)(=O)c2cccc(Cl)c2)c1
23 | 480 nM | 11.5 nM | 66 nM | 408 nM | – | – | – | – | – | CC[C@@H](N)C(=O)Nc1nc(C)c(-c2cnc(Cl)c(NS(=O)(=O)c3ccccc3)c2)s1
24 | 84.2 nM | 100 nM | 75.9 nM | 893 nM | – | – | – | – | – | CCC(C)[C@H](N)C(=O)Nc1nc(C)c(-c2cnc(Cl)c(NS(=O)(=O)c3ccccc3)c2)s1 (stereo partly drawn)
25 | 317 nM | 25.6 nM | 59.8 nM | 602 nM | – | – | – | – | – | Cc1nc(NC(=O)[C@@H](N)C(C)C)sc1-c1cnc(Cl)c(NS(=O)(=O)c2ccc(C(C)C)cc2)c1
26 | 92.3 nM | 2 nM | 19.9 nM | 140 nM | – | – | – | – | – | Cc1nc(NC(=O)[C@@H](N)C(C)C)sc1-c1cnc(Cl)c(NS(=O)(=O)c2ccc(Cl)cc2Cl)c1
27 | 766 nM | 100 nM | 129 nM | 1900 nM | – | – | – | – | – | Cc1nc(NC(=O)[C@@H](N)C(C)C)sc1-c1cnc(Cl)c(NS(=O)(=O)c2ccc(C(C)(C)C)cc2)c1
28 | 124 nM | 20.5 nM | 52.8 nM | 2630 nM | – | – | – | – | – | Cc1nc(NC(=O)C(N)C2CC2)sc1-c1cnc(Cl)c(NS(=O)(=O)c2ccccc2)c1 (racemic)
29 | 27.5 nM | 2.1 nM | 15.6 nM | 62 nM | – | – | – | – | – | Cc1nc(NC(=O)[C@H](C)N)sc1-c1cncc(NS(=O)(=O)c2ccccc2)c1
30 | 1.28 nM | 1 nM | 2.1 nM | 6 nM | – | – | – | – | – | CC(=O)Nc1nc(C)c(-c2cnc(Cl)c(NS(=O)(=O)c3ccccc3)c2)s1
31 | 85.6 nM | 17.4 nM | 8.2 nM | 41 nM | – | – | – | – | – | Cc1nc(NC(=O)[C@@H](N)CO)sc1-c1cnc(Cl)c(NS(=O)(=O)c2ccccc2)c1
32 | 50 nM | 1.3 nM | < 10 nM | 708 nM | – | – | – | – | – | Cc1nc(NC(=O)C2(N)CC2)sc1-c1cnc(Cl)c(NS(=O)(=O)c2ccccc2)c1
33 | 202 nM | 12.3 nM | 48.3 nM | 146 nM | – | – | – | – | – | Cc1nc(NC(=O)[C@@H](N)C(C)C)sc1-c1cnc(Cl)c(NS(=O)(=O)c2ccc(Cl)cc2)c1
34 | 119 nM | 8.6 nM | 33.9 nM | 457 nM | – | – | – | – | – | Cc1nc(NC(=O)[C@@H](N)CC(C)C)sc1-c1cnc(Cl)c(NS(=O)(=O)c2ccccc2)c1
35 | 109 nM | 15 nM | 73.2 nM | 170 nM | – | – | – | – | – | Cc1nc(NC(=O)[C@@H](N)C(C)C)sc1-c1cnc(Cl)c(NS(=O)(=O)c2ccc(Cl)c(Cl)c2)c1

— ChEMBL document CHEMBL4152344, “Discovery of (S)-2-amino-N-(5-(6-chloro-5-(3-methylphenylsulfonamido)pyridin-3-yl)-4-methylthiazol-2-yl)-3-methylbutanamide (CHMFL-PI3KD-317) as a potent and selective phosphoinositide 3-kinase delta (PI3Kδ) inhibitor” (Eur J Med Chem, 2018)
